US10242162B2 (LG Chem, Ltd., priority 2014, dated 2019)

Assay: Solubility measurement in water (Test Example)
Format: physicochemical
Conditions: 25° C., 1 atm, 24 hr
Experimental: In order to evaluate the validity of the method of determining the water insolubility according to the present invention in the Example and Comparative Example, the following testing was performed.

| water solubility (in words) (100 g of water) | Structure (SMILES) | amount dissolved in 100 g of water |
| --- | --- | --- |
|  | CCC(C)O (centres unmarked) [2-butanol] | 30 g |
| approximated zero | c1ccc2ccccc2c1 [Bicyclo[4.4.0]deca-1,3,5,7,9-pentene] |  |
